We go through two compounds from patent US5593984A, “Cephalosporin derivatives” (Yuhan Corporation, priority 1992, dated 1997).

≈ marks a conversion by molar mass, not a printed value. Read-outs that look alike come from different tables or passages of the source. Bounds are passed on as bounds.

The subject of test [1] is Gram-negative bacteria such as Pseudomonas aeruginosa. As to conditions: background art; cited from earlier work.
Test [2] has as its system Staph. aureus C-5113. The test is described as follows: MIC by agar dilution, Staph. aureus C-5113. It counts as cell-based. Particulars: Staphylococcus aureus, C5113, 17 h, Mueller-Hinton agar, read-out: Minimal Inhibitory Concentration (MIC). Put shortly: (§1)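 Two-fold dilutions of compound were dispersed in Mueller-Hinton agar, inoculated with test strain at 10^6 CFU per ml, and incubated at 35°-37° C. for 17±1 hours; MIC read from agar dilution.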
A general note: Agar dilution tests growth on a series of plates holding different concentrations.

Test [3] relates to Prov. stuartii IFO 12930. The test is described as follows: MIC by agar dilution, Prov. stuartii IFO 12930. It counts as cell-based. As to conditions: Providencia stuartii, IFO12930, 17 h, Mueller-Hinton agar, read-out: Minimal Inhibitory Concentration (MIC). Put shortly:
as §1

Test [4] has as its system E. coli NIHJ JC-2. The test is described as follows: MIC by agar dilution, E. coli NIHJ JC-2. The format is cell-based. As to conditions: Escherichia coli, NIHJJC2, 17 h, read-out: Minimal Inhibitory Concentration (MIC). Put shortly: as §1
Test [5] has as its system Ent. aerogenes IFO 12979. In words: MIC by agar dilution, Ent. aerogenes IFO 12979. As to conditions: Klebsiella aerogenes, IFO12979, 17 h, Mueller-Hinton agar, read-out: Minimal Inhibitory Concentration (MIC). It counts as cell-based. The gist of the method: as §1
Test [6] concerns P. vulgaris NCTC 8313. In words: MIC by agar dilution, P. vulgaris NCTC 8313. The format is cell-based. As to conditions: Proteus vulgaris, NCTC8313, 17 h, read-out: Minimal Inhibitory Concentration (MIC). The gist of the method:
as §1

Test [7] has as its system S. epidermidis ATCC 12228. In words: MIC by agar dilution, S. epidermidis ATCC 12228. The format is cell-based. As to conditions: Staphylococcus epidermidis, ATCC12228, 17 h, read-out: Minimal Inhibitory Concentration (MIC). The gist of the method:
as §1

The subject of test [8] is Staph. aureus C-57. The test is described as follows: MIC by agar dilution, Staph. aureus C-57. It counts as cell-based. Particulars: Staphylococcus aureus, C57, 17 h, Mueller-Hinton agar, read-out: Minimal Inhibitory Concentration (MIC). Put shortly: as §1
Test [9] concerns K. pneumoniae NCTC 9632. In words: MIC by agar dilution, K. pneumoniae NCTC 9632. The format is cell-based. As to conditions: Klebsiella pneumoniae, NCTC9632, 17 h, read-out: Minimal Inhibitory Concentration (MIC). The gist of the method:
as §1

Test [10] relates to Staph. aureus Smith. In words: MIC by agar dilution, Staph. aureus Smith. It counts as cell-based. As to conditions: Staphylococcus aureus, 17 h, Mueller-Hinton agar, read-out: Minimal Inhibitory Concentration (MIC). The gist of the method: as §1
Test [11] has as its system M. morganii DY-1. In words: MIC by agar dilution, M. morganii DY-1. The format is cell-based. As to conditions: Morganella morganii, DY1, 17 h, read-out: Minimal Inhibitory Concentration (MIC). Put shortly:
as §1

The subject of test [12] is E. coli DY-1. In words: MIC by agar dilution, E. coli DY-1. The format is cell-based. Particulars: Escherichia coli, DY1, 17 h, read-out: Minimal Inhibitory Concentration (MIC). Put shortly:
as §1

Test [13] deals with Ps. aeruginosa ATCC 10145. The test is described as follows: MIC by agar dilution, Ps. aeruginosa ATCC 10145. Particulars: Pseudomonas aeruginosa, ATCC10145, 17 h, Mueller-Hinton agar, read-out: Minimal Inhibitory Concentration (MIC). The format is cell-based. Put shortly:
as §1

For test [14], the system named is Ser. marcescens IFO 12648. The test is described as follows: MIC by agar dilution, Ser. marcescens IFO 12648. It counts as cell-based. As to conditions: Serratia marcescens, IFO12648, 17 h, read-out: Minimal Inhibitory Concentration (MIC). The gist of the method:
as §1

In test [15] the test system is Staph. aureus C-5216. The test is described as follows: MIC by agar dilution, Staph. aureus C-5216. It counts as cell-based. As to conditions: Staphylococcus aureus, C5216, 17 h, Mueller-Hinton agar, read-out: Minimal Inhibitory Concentration (MIC). Put shortly:
as §1

Test [16] relates to Ps. aeruginosa NCTC 10490. In words: MIC by agar dilution, Ps. aeruginosa NCTC 10490. It counts as cell-based. Particulars: Pseudomonas aeruginosa, NCTC10490, 17 h, Mueller-Hinton agar, read-out: Minimal Inhibitory Concentration (MIC). The gist of the method: as §1
Test [17] deals with Ent. cloacae IFO 13535. The test is described as follows: MIC by agar dilution, Ent. cloacae IFO 13535. As to conditions: Enterobacter cloacae, IFO13535, 17 h, read-out: Minimal Inhibitory Concentration (MIC). The format is cell-based. The gist of the method:
as §1

Test [18] concerns E. coli No. 29. In words: MIC by agar dilution, E. coli No. 29. It counts as cell-based. Particulars: Escherichia coli, read-out: Minimal Inhibitory Concentration (MIC). Put shortly:
as §1

Test [19] concerns Ps. aeruginosa DY-2. The test is described as follows: MIC by agar dilution, Ps. aeruginosa DY-2. Particulars: Pseudomonas aeruginosa, DY2, 17 h, read-out: Minimal Inhibitory Concentration (MIC). The format is cell-based. The gist of the method:
as §1

The subject of test [20] is B. subtilis ATCC 6633. In words: MIC by agar dilution, B. subtilis ATCC 6633. The format is cell-based. As to conditions: Bacillus subtilis, ATCC6633, 17 h, read-out: Minimal Inhibitory Concentration (MIC). The gist of the method: as §1
Test [21] concerns Gram-positive bacteria, in particular, Staphylococcus species. Particulars: background art; cited from earlier work.
The test system of test [22] is Staph. aureus ATCC 6538P. In words: MIC by agar dilution, Staph. aureus ATCC 6538P. The format is cell-based. As to conditions: Staphylococcus aureus, ATCC6538P, 17 h, read-out: Minimal Inhibitory Concentration (MIC). The gist of the method:
as §1

Consider `CO/N=C(\C(=O)N[C@@H]1C(=O)N2C(C(=O)O)=C(COC(C)=O)CS[C@H]12)c1csc(N)n1` [CTX, Cefotaxime, reference compound], for which, in test [1], the “antibacterial activities against Gram-negative bacteria such as Pseudomonas aeruginosa” value is listed as “less effective antibacterial activities”. The MIC is 3.13 µg/mL (≈ 6.87 µM) in [2]; ≤ 0.006 µg/mL in test [3]; 0.05 µg/mL (≈ 0.11 µM) in [4] (E. coli NIHJ JC-2, agar dilution, Mueller-Hinton agar); 0.025 µg/mL (≈ 0.0549 µM) in [5]; ≤ 0.006 µg/mL in test [6] (P. vulgaris NCTC 8313, agar dilution, Mueller-Hinton agar); 0.1 µg/mL (≈ 0.22 µM) in test [7] (S. epidermidis ATCC 12228, agar dilution, Mueller-Hinton agar). For the same compound, the MIC in test [8] was 100 µg/mL (≈ 220 µM); in test [9] (K. pneumoniae NCTC 9632, agar dilution, Mueller-Hinton agar) it was 0.025 µg/mL (≈ 0.0549 µM); in test [10], 1.56 µg/mL (≈ 3.43 µM); in [11] (M. morganii DY-1, agar dilution, Mueller-Hinton agar), 0.025 µg/mL (≈ 0.0549 µM); in test [12] (E. coli DY-1, agar dilution, Mueller-Hinton agar) it was ≤ 0.006 µg/mL; in [13], 6.25 µg/mL (≈ 13.7 µM). Further, the MIC in test [14] (Ser. marcescens IFO 12648, agar dilution, Mueller-Hinton agar) is 0.05 µg/mL (≈ 0.11 µM); in test [15], 1.56 µg/mL (≈ 3.43 µM); in [16], 0.78 µg/mL (≈ 1.71 µM); in test [17] (Ent. cloacae IFO 13535, agar dilution, Mueller-Hinton agar), 0.78 µg/mL (≈ 1.71 µM); in test [18] (17 h, E. coli No. 29, agar dilution, Mueller-Hinton agar), ≤ 0.006 µg/mL; in test [19] (Ps. aeruginosa DY-2, agar dilution, Mueller-Hinton agar), 12.5 µg/mL (≈ 27.4 µM). Further, the MIC was 0.1 µg/mL (≈ 0.22 µM) in test [20] (B. subtilis ATCC 6633, agar dilution, Mueller-Hinton agar) and 0.78 µg/mL (≈ 1.71 µM) in [22] (Staph. aureus ATCC 6538P, agar dilution, Mueller-Hinton agar). In [21], the “antibacterial activities against Gram-positive bacteria, in particular Staphylococcus species” value was “have antibacterial activities against Staphylococcus species”.

As for `CC(C)(O/N=C(\C(=O)N[C@@H]1C(=O)N2C(C(=O)[O-])=C(C[n+]3ccccc3)CS[C@H]12)c1csc(N)n1)C(=O)O` [CAZ, Ceftazidime, reference compound], the “antibacterial activities against Gram-negative bacteria such as Pseudomonas aeruginosa” value in [1] is recorded as “superior antibacterial activities”. For the same compound, the MIC in [2] came out at 25 µg/mL (≈ 45.7 µM); in [3], 0.025 µg/mL (≈ 0.0457 µM); in test [4], 0.2 µg/mL (≈ 0.366 µM); in test [5], 0.05 µg/mL (≈ 0.0915 µM); in test [6] it was 0.025 µg/mL (≈ 0.0457 µM); in test [7] it was 0.78 µg/mL (≈ 1.43 µM). In addition, the MIC in test [8] was determined as 100 µg/mL (≈ 183 µM); in test [9], 0.05 µg/mL (≈ 0.0915 µM); in test [10], 6.25 µg/mL (≈ 11.4 µM); in test [11] it was 0.1 µg/mL (≈ 0.183 µM); in test [12] it was 0.05 µg/mL (≈ 0.0915 µM); in test [13] it was 0.78 µg/mL (≈ 1.43 µM). Also, the MIC in test [14] was determined as 0.025 µg/mL (≈ 0.0457 µM); in test [15], 25 µg/mL (≈ 45.7 µM); in [16], 0.1 µg/mL (≈ 0.183 µM); in test [17], 1.56 µg/mL (≈ 2.85 µM); in test [18] (NO.29, 17 h), 0.1 µg/mL (≈ 0.183 µM); in test [19], 1.56 µg/mL (≈ 2.85 µM). Moreover, the MIC in test [20] and in test [22] was 1.56 µg/mL (≈ 2.85 µM) each time. Further, the “antibacterial activities against Gram-positive bacteria, in particular Staphylococcus species” value in test [21] is on record as “relatively inferior antibacterial activities”.
